Reference: patent publication US20230097157A1, “Bicyclic Pyridin-2-one and pyrimidin-4-one Derivatives Useful As a Factor XIa Inhibitors” (Janssen Pharmaceutica NV, priority 2021, published 2023)
Read-outs that look alike come from different tables or passages of the source.

Legend:
human plasma kallikrein = human plasma kallikrein (Homo sapiens, UniProt P03952); test: Kallikrein inhibition assay (FLINT) utilizing a quenched AMC peptide substrate Z-Gly-Pro-Arg-AMC; format: biochemical; settings: kinetic (KIN) reads, read-out: Kallikrein KIN Inh IC50
Sequence of human plasma kallikrein (P03952 391-638 limits assumed): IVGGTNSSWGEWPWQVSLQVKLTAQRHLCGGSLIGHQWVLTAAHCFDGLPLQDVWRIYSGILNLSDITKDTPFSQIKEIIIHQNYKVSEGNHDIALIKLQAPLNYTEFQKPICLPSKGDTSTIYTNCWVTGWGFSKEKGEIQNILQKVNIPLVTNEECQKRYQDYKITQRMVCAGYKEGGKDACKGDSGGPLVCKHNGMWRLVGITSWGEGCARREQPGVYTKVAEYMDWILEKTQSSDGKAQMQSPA
Sequence of human plasma kallikrein (P03952 20-390 partner limits assumed): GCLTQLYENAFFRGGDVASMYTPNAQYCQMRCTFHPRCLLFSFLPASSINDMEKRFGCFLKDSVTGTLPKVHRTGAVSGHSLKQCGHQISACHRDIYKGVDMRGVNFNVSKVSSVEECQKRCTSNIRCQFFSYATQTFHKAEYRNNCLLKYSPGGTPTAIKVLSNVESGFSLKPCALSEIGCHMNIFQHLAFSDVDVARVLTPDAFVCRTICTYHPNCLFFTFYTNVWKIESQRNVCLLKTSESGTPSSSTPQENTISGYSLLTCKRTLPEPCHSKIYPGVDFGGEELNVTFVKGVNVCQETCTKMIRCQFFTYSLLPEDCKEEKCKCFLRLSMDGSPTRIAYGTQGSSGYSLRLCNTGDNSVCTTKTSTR
How it was run: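 Human plasma kallikrein (2 nM final) pre-incubated 30 min with compound (11-point 3-fold series, top 1 μM, 2% DMSO), then 50 μM Z-Gly-Pro-Arg-AMC added. Buffer 50 mM Tris pH 7.5, 100 mM NaCl, 5 mM CaCl2, BSA, CHAPS. AMC fluorescence (340/440 nm) read kinetically over 30 min at room temperature, IC50 by 4-parameter logistic fit.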

Factor XIa = Factor XIa (Homo sapiens, UniProt P03951); test: Factor XIa inhibition assay (FLINT) utilizing a fluorophore-quencher pair peptide substrate 5Fam-[…]-K5Tamra; format: biochemical; settings: kinetic (KIN) reads, read-out: FXIa KIN Inh IC50
Sequence of Factor XIa (P03951 388-625 limits assumed): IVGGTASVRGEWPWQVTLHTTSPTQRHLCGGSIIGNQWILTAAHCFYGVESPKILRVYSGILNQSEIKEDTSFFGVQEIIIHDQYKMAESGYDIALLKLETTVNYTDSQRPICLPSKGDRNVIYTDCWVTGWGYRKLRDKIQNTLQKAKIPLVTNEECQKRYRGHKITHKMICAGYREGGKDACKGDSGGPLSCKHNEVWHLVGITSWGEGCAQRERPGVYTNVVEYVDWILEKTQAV
Sequence of Factor XIa (P03951 19-387 partner limits assumed): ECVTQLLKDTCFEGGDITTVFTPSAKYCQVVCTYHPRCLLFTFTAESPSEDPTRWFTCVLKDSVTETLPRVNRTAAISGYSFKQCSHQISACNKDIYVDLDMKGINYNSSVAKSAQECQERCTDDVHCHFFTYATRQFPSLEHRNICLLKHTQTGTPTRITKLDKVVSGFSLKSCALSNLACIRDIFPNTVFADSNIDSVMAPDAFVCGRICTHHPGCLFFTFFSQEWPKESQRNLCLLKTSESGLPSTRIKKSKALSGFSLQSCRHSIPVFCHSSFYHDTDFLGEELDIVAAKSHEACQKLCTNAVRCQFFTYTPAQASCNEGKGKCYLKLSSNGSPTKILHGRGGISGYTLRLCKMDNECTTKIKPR
How it was run: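 FXIa was preincubated with compound for 30 min at room temperature in Tris pH 7.5 buffer containing CaCl2, BSA and CHAPS, then reacted with 15 μM quenched 5Fam/Tamra peptide substrate. Fluorescence (485/520 nm) was read kinetically every 5 min for 30 min.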

Row | Compound | IC50 (human plasma kallikrein; values in nM) [nM] | IC50 (Factor XIa; values in nM) [nM] | IC50 (human plasma kallikrein; unit μM) [nM] | IC50 (Factor XIa; unit μM) [nM]
1 | COc1cc(-c2cnc([C@@H]3C[C@@H](C)c4nc(-c5c(-n6cnnn6)ccc(Cl)c5F)cc(=O)n43)[nH]2)ccn1 (stereo in doubt) [Example 98, (6*S,8*R)-2-(3-Chloro-2-fluoro-6-(1H-tetrazol-1-yl)phenyl)-6-(5-(2-methoxypyridin-4-yl)-1H-imidazol-2-yl)-8-methyl-7,8-dihydropyrrolo[1,2-a]pyrimidin-4(6H)-one] | 135 | 143 | – | –
2 | C[C@@H]1C[C@H](c2ncc(-c3cn[nH]c3)[nH]2)n2c1nc(-c1c(-n3cnnn3)ccc(Cl)c1F)cc2=O (stereo in doubt) [Example 108, (6*R,8*R)-6-(5-(1H-Pyrazol-4-yl)-1H-imidazol-2-yl)-2-(3-chloro-2-fluoro-6-(1H-tetrazol-1-yl)phenyl)-8-methyl-7,8-dihydropyrrolo[1,2-a]pyrimidin-4(6H)-one] | – | 90.3 | 7100 | –
3 | C[C@H]1C[C@H](c2ncc(-c3cn[nH]c3)[nH]2)n2c1nc(-c1c(-n3cnnn3)ccc(Cl)c1F)cc2=O (stereo in doubt) [Example 109, (6*R,8*S)-6-(5-(1H-Pyrazol-4-yl)-1H-imidazol-2-yl)-2-(3-chloro-2-fluoro-6-(1H-tetrazol-1-yl)phenyl)-8-methyl-7,8-dihydropyrrolo[1,2-a]pyrimidin-4(6H)-one] | – | – | > 10000 | > 10000
4 | C[C@@H]1C[C@@H](c2ncc(-c3cn[nH]c3)[nH]2)n2c1nc(-c1c(-n3cnnn3)ccc(Cl)c1F)cc2=O (stereo in doubt) [Example 111, (6*S,8*R)-6-(5-(1H-Pyrazol-4-yl)-1H-imidazol-2-yl)-2-(3-chloro-2-fluoro-6-(1H-tetrazol-1-yl)phenyl)-8-methyl-7,8-dihydropyrrolo[1,2-a]pyrimidin-4(6H)-one] | 146 | 22.6 | – | –
5 | C[C@@H]1C[C@H](c2ncc(-c3cnc(N)nc3)[nH]2)n2c1nc(-c1c(-n3cnnn3)ccc(Cl)c1F)cc2=O (stereo in doubt) [Example 114, (6*R,8*R)-6-(5-(2-Aminopyrimidin-5-yl)-1H-imidazol-2-yl)-2-(3-chloro-2-fluoro-6-(1H-tetrazol-1-yl)phenyl)-8-methyl-7,8-dihydropyrrolo[1,2-a]pyrimidin-4(6H)-one] | 284 | 111 | – | –
6 | COC(=O)Nc1ccc(-c2cnc([C@H]3C[C@H](C)c4nc(-c5c(-n6cnnn6)ccc(Cl)c5F)cc(=O)n43)[nH]2)cn1 (stereo in doubt) [Example 115, methyl (5-(2-((6R*,8S*)-2-(3-Chloro-2-fluoro-6-(1H-tetrazol-1-yl)phenyl)-8-methyl-4-oxo-4,6,7,8-tetrahydropyrrolo[1,2-a]pyrimidin-6-yl)-1H-imidazol-5-yl)pyridin-2-yl)carbamate] | – | 247 | 6000 | –
7 | COC(=O)Nc1ccc(-c2cnc([C@H]3C[C@@H](C)c4nc(-c5c(-n6cnnn6)ccc(Cl)c5F)cc(=O)n43)[nH]2)cn1 (stereo in doubt) [Example 117, Methyl (5-(2-((6*R,8*R)-2-(3-Chloro-2-fluoro-6-(1H-tetrazol-1-yl)phenyl)-8-methyl-4-oxo-4,6,7,8-tetrahydropyrrolo[1,2-a]pyrimidin-6-yl)-1H-imidazol-5-yl)pyridin-2-yl)carbamate] | – | – | > 10000 | 6100
8 | C[C@H]1C[C@@H](c2ncc(-c3cnc(N)nc3)[nH]2)n2c1nc(-c1c(-n3cnnn3)ccc(Cl)c1F)cc2=O (stereo in doubt) [Example 119, (6*S,8*S)-6-(5-(2-Aminopyrimidin-5-yl)-1H-imidazol-2-yl)-2-(3-chloro-2-fluoro-6-(1H-tetrazol-1-yl)phenyl)-8-methyl-7,8-dihydropyrrolo[1,2-a]pyrimidin-4(6H)-one] | 287 | 8.7 | – | –
9 | C[C@@H]1C[C@H](c2ncc(-c3ccc(NC(=O)C4CC4)nc3)[nH]2)n2c1nc(-c1c(-n3cnnn3)ccc(Cl)c1F)cc2=O (stereo in doubt) [Example 120, N-(5-(2-((6*R,8*R)-2-(3-Chloro-2-fluoro-6-(1H-tetrazol-1-yl)phenyl)-8-methyl-4-oxo-4,6,7,8-tetrahydropyrrolo[1,2-a]pyrimidin-6-yl)-1H-imidazol-5-yl)pyridin-2-yl)cyclopropanecarboxamide] | 11.2 | 12.8 | – | –
10 | C[C@H]1C[C@H](c2ncc(-c3ccc(NC(=O)C4CC4)nc3)[nH]2)n2c1nc(-c1c(-n3cnnn3)ccc(Cl)c1F)cc2=O (stereo in doubt) [Example 121, N-(5-(2-((6*R,8*S)-2-(3-Chloro-2-fluoro-6-(1H-tetrazol-1-yl)phenyl)-8-methyl-4-oxo-4,6,7,8-tetrahydropyrrolo[1,2-a]pyrimidin-6-yl)-1H-imidazol-5-yl)pyridin-2-yl)cyclopropanecarboxamide] | – | 675 | 4800 | –
11 | C[C@@H]1C[C@@H](c2ncc(-c3ccc(NC(=O)C4CC4)nc3)[nH]2)n2c1nc(-c1c(-n3cnnn3)ccc(Cl)c1F)cc2=O (stereo in doubt) [Example 122, N-(5-(2-((6*S,8*R)-2-(3-Chloro-2-fluoro-6-(1H-tetrazol-1-yl)phenyl)-8-methyl-4-oxo-4,6,7,8-tetrahydropyrrolo[1,2-a]pyrimidin-6-yl)-1H-imidazol-5-yl)pyridin-2-yl)cyclopropanecarboxamide] | – | 95 | 5600 | –
12 | COC(=O)Nc1ccc(-c2cnc([C@H]3C[C@H](C)c4nc(-c5c(-n6cnnn6)ccc(Cl)c5F)cc(=O)n43)[nH]2)cc1 (stereo in doubt) [Example 124, Methyl (4-(2-((6*R,8*S)-2-(3-Chloro-2-fluoro-6-(1H-tetrazol-1-yl)phenyl)-8-methyl-4-oxo-4,6,7,8-tetrahydropyrrolo[1,2-a]pyrimidin-6-yl)-1H-imidazol-5-yl)phenyl)carbamate] | 52.9 | 8.3 | – | –

Next, values leading:

Row | IC50 (human plasma kallikrein; values in nM) [nM] | IC50 (Factor XIa; values in nM) [nM] | IC50 (human plasma kallikrein; unit μM) [nM] | IC50 (Factor XIa; unit μM) [nM] | Compound
13 | 23.8 | 8 | – | – | COc1cc(-c2cnc([C@H]3C[C@@H](C)c4nc(-c5c(-n6cnnn6)ccc(Cl)c5F)cc(=O)n43)[nH]2)ccn1 (stereo in doubt) [Example 99, (6*R,8*R)-2-(3-Chloro-2-fluoro-6-(1H-tetrazol-1-yl)phenyl)-6-(5-(2-methoxypyridin-4-yl)-1H-imidazol-2-yl)-8-methyl-7,8-dihydropyrrolo[1,2-a]pyrimidin-4(6H)-one]
14 | 7.6 | 6.9 | – | – | COc1cc(-c2cnc([C@H]3C[C@H](C)c4nc(-c5c(-n6cnnn6)ccc(Cl)c5F)cc(=O)n43)[nH]2)ccn1 (stereo in doubt) [Example 100, (6*R,8*S)-2-(3-Chloro-2-fluoro-6-(1H-tetrazol-1-yl)phenyl)-6-(5-(2-methoxypyridin-4-yl)-1H-imidazol-2-yl)-8-methyl-7,8-dihydropyrrolo[1,2-a]pyrimidin-4(6H)-one]
15 | 95.9 | 2.4 | – | – | C[C@H]1C[C@@H](c2ncc(-c3cn[nH]c3)[nH]2)n2c1nc(-c1c(-n3cnnn3)ccc(Cl)c1F)cc2=O (stereo in doubt) [Example 107, (6*S,8*S)-6-(5-(1H-Pyrazol-4-yl)-1H-imidazol-2-yl)-2-(3-chloro-2-fluoro-6-(1H-tetrazol-1-yl)phenyl)-8-methyl-7,8-dihydropyrrolo[1,2-a]pyrimidin-4(6H)-one]
16 | 7.8 | 1.6 | – | – | C[C@@H]1C[C@H](c2ncc(-c3ccc4c(c3)CC(=O)N4)[nH]2)n2c1nc(-c1c(-n3cnnn3)ccc(Cl)c1F)cc2=O (stereo in doubt) [Example 112, (6*R,8*R)-2-(3-Chloro-2-fluoro-6-(1H-tetrazol-1-yl)phenyl)-8-methyl-6-(5-(2-oxoindolin-5-yl)-1H-imidazol-2-yl)-7,8-dihydropyrrolo[1,2-a]pyrimidin-4(6H)-one]
17 | 16.8 | 0.7 | – | – | C[C@H]1C[C@@H](c2ncc(-c3ccc4c(c3)CC(=O)N4)[nH]2)n2c1nc(-c1c(-n3cnnn3)ccc(Cl)c1F)cc2=O (stereo in doubt) [Example 113, (6*S,8*S)-2-(3-Chloro-2-fluoro-6-(1H-tetrazol-1-yl)phenyl)-8-methyl-6-(5-(2-oxoindolin-5-yl)-1H-imidazol-2-yl)-7,8-dihydropyrrolo[1,2-a]pyrimidin-4(6H)-one]
18 | 26.8 | 1.2 | – | – | COC(=O)Nc1ccc(-c2cnc([C@@H]3C[C@H](C)c4nc(-c5c(-n6cnnn6)ccc(Cl)c5F)cc(=O)n43)[nH]2)cn1 (stereo in doubt) [Example 116, Methyl (5-(2-((6*S,8*S)-2-(3-Chloro-2-fluoro-6-(1H-tetrazol-1-yl)phenyl)-8-methyl-4-oxo-4,6,7,8-tetrahydropyrrolo[1,2-a]pyrimidin-6-yl)-1H-imidazol-5-yl)pyridin-2-yl)carbamate]
19 | 15 | 7.9 | – | – | COC(=O)Nc1ccc(-c2cnc([C@@H]3C[C@@H](C)c4nc(-c5c(-n6cnnn6)ccc(Cl)c5F)cc(=O)n43)[nH]2)cn1 (stereo in doubt) [Example 118, Methyl (5-(2-((6*S,8*R)-2-(3-Chloro-2-fluoro-6-(1H-tetrazol-1-yl)phenyl)-8-methyl-4-oxo-4,6,7,8-tetrahydropyrrolo[1,2-a]pyrimidin-6-yl)-1H-imidazol-5-yl)pyridin-2-yl)carbamate]
20 | 17.5 | 3.1 | – | – | C[C@H]1C[C@@H](c2ncc(-c3ccc(NC(=O)C4CC4)nc3)[nH]2)n2c1nc(-c1c(-n3cnnn3)ccc(Cl)c1F)cc2=O (stereo in doubt) [Example 123, N-(5-(2-((6*S,8*S)-2-(3-Chloro-2-fluoro-6-(1H-tetrazol-1-yl)phenyl)-8-methyl-4-oxo-4,6,7,8-tetrahydropyrrolo[1,2-a]pyrimidin-6-yl)-1H-imidazol-5-yl)pyridin-2-yl)cyclopropanecarboxamide]
